Measured values reported in the supplement of paper PMC10307832.

What was measured:
Experiment in all cases: relative viability (nuclei count vs DMSO), 5 days (fraction); higher = more cells survive
PC-3 [JPC-3] = test system: PC-3 [JPC-3]
Outline: (§1)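 After 5 days of treatment, lung cancer cells in 1536-well plates were fixed and stained in a single step (final 0.05% Triton X-100, 1% formaldehyde, 1 ug/ml Hoechst) and their nuclei counted on 4× images. Treatment had been applied by pin tool the day after seeding as one drug alone or as a fixed anchor-drug dose with five library-drug doses (not always all listed) in √10 steps. Relative viability is the nuclei count of treated wells divided by that of vehicle wells, and values are medians of duplicate plates.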

RERF-LC-KJ = test system: RERF-LC-KJ
Outline: as §1

NCI-H2087 = test system: NCI-H2087
Outline: as §1

HCC-78 = test system: HCC-78
Outline: as §1

LOU-NH91 = test system: LOU-NH91
Outline: as §1

NCI-H1793 = test system: NCI-H1793
Outline: as §1

NCI-H1755 = test system: NCI-H1755
Outline: as §1

NCI-H1944 = test system: NCI-H1944
Outline: as §1

NCI-H1651 = test system: NCI-H1651
Outline: as §1

HCC-366 = test system: HCC-366
Outline: as §1

NCI-H2228 = test system: NCI-H2228
Outline: as §1

ChaGo-K-1 = test system: ChaGo-K-1
Outline: as §1

NCI-H1395 = test system: NCI-H1395
Outline: as §1

NCI-H2170 = test system: NCI-H2170
Outline: as §1

NCI-H3122 = test system: NCI-H3122
Outline: as §1

LU99A = test system: LU99A
Outline: as §1

LC-2-ad = test system: LC-2-ad
Outline: as §1

NCI-H2405 = test system: NCI-H2405
Outline: as §1

NCI-H460 = test system: NCI-H460
Outline: as §1

CAL-12T = test system: CAL-12T
Outline: as §1

UMC-11 = test system: UMC-11
Outline: as §1

In the case of `CC(=O)O[C@@]12CO[C@@H]1C[C@H](O)[C@@]1(C)C(=O)[C@H](O)C3=C(C)[C@@H](OC(=O)[C@H](O)[C@@H](NC(=O)OC(C)(C)C)c4ccccc4)C[C@@](O)([C@@H](OC(=O)c4ccccc4)[C@H]21)C3(C)C` [Docetaxel] + CC1(C)CCC(c2ccc(Cl)cc2)=C(CN2CCN(c3ccc(C(=O)NS(=O)(=O)c4ccc(N[C@H](CCN5CCOCC5)CSc5ccccc5)c(S(=O)(=O)C(F)(F)F)c4)cc3)CC2)C1 [Navitoclax] (partner 0.5 µM), the relative viability (PC-3 [JPC-3]; first compound 0.0002 µM) is reported as 0.82, the relative viability (PC-3 [JPC-3]; first compound 0.000632 µM) is reported as 0.721 and the relative viability (PC-3 [JPC-3]; first compound 0.002 µM) is reported as 0.527. For the same molecule, the relative viability (PC-3 [JPC-3]; first compound 0.006325 µM) was 0.229, the relative viability (PC-3 [JPC-3]; first compound 0.02 µM) was 0.202 and the relative viability (RERF-LC-KJ; first compound 0.0002 µM) was 0.754. It also gave a relative viability (RERF-LC-KJ; first compound 0.000632 µM) of 0.576, a relative viability (RERF-LC-KJ; first compound 0.002 µM) of 0.174 and a relative viability (RERF-LC-KJ; first compound 0.006325 µM) of 0.202. For the same molecule, the relative viability (RERF-LC-KJ; first compound 0.02 µM) was 0.154, the relative viability (NCI-H2087; first compound 0.0002 µM) was 0.964 and the relative viability (NCI-H2087; first compound 0.000632 µM) was 0.446. The relative viability (NCI-H2087; first compound 0.002 µM) was 0.276, the relative viability (NCI-H2087; first compound 0.006325 µM) was 0.154 and the relative viability (NCI-H2087; first compound 0.02 µM) was 0.129. The relative viability (HCC-78; first compound 0.0002 µM) was 0.75, the relative viability (HCC-78; first compound 0.000632 µM) was 0.455 and the relative viability (HCC-78; first compound 0.002 µM) was 0.244. For the same molecule, the relative viability (HCC-78; first compound 0.006325 µM) was 0.242, the relative viability (HCC-78; first compound 0.02 µM) was 0.158 and the relative viability (LOU-NH91; first compound 0.0002 µM) was 0.784. It also gave a relative viability (LOU-NH91; first compound 0.000632 µM) of 0.512, a relative viability (LOU-NH91; first compound 0.002 µM) of 0.332 and a relative viability (LOU-NH91; first compound 0.006325 µM) of 0.279. The relative viability (LOU-NH91; first compound 0.02 µM) was 0.222, the relative viability (NCI-H1793; first compound 0.0002 µM) was 0.337 and the relative viability (NCI-H1793; first compound 0.000632 µM) was 0.432. It also gave a relative viability (NCI-H1793; first compound 0.002 µM) of 0.292, a relative viability (NCI-H1793; first compound 0.006325 µM) of 0.228 and a relative viability (NCI-H1793; first compound 0.02 µM) of 0.131. For the same molecule, the relative viability (NCI-H1755; first compound 0.0002 µM) was 0.982, the relative viability (NCI-H1755; first compound 0.000632 µM) was 0.98 and the relative viability (NCI-H1755; first compound 0.002 µM) was 0.401. It also gave a relative viability (NCI-H1755; first compound 0.006325 µM) of 0.232, a relative viability (NCI-H1755; first compound 0.02 µM) of 0.136 and a relative viability (NCI-H1944; first compound 0.0002 µM) of 1.07. For the same molecule, the relative viability (NCI-H1944; first compound 0.000632 µM) was 1.05, the relative viability (NCI-H1944; first compound 0.002 µM) was 0.942 and the relative viability (NCI-H1944; first compound 0.006325 µM) was 0.297. For the same molecule, the relative viability (NCI-H1944; first compound 0.02 µM) was 0.155, the relative viability (NCI-H1651; first compound 0.0002 µM) was 1.18 and the relative viability (NCI-H1651; first compound 0.000632 µM) was 0.968. The relative viability (NCI-H1651; first compound 0.002 µM) was 0.233, the relative viability (NCI-H1651; first compound 0.006325 µM) was 0.0921 and the relative viability (NCI-H1651; first compound 0.02 µM) was 0.0627. For the same molecule, the relative viability (HCC-366; first compound 0.0002 µM) was 1.03, the relative viability (HCC-366; first compound 0.000632 µM) was 0.969 and the relative viability (HCC-366; first compound 0.002 µM) was 0.0411. The relative viability (HCC-366; first compound 0.006325 µM) was 0.0211, the relative viability (HCC-366; first compound 0.02 µM) was 0.0135 and the relative viability (NCI-H2228; first compound 0.0002 µM) was 0.854. For the same molecule, the relative viability (NCI-H2228; first compound 0.000632 µM) was 0.35, the relative viability (NCI-H2228; first compound 0.002 µM) was 0.156 and the relative viability (NCI-H2228; first compound 0.006325 µM) was 0.114. The relative viability (NCI-H2228; first compound 0.02 µM) was 0.056, the relative viability (ChaGo-K-1; first compound 0.0002 µM) was 1.02 and the relative viability (ChaGo-K-1; first compound 0.000632 µM) was 0.597. The relative viability (ChaGo-K-1; first compound 0.002 µM) was 0.485, the relative viability (ChaGo-K-1; first compound 0.006325 µM) was 0.429 and the relative viability (ChaGo-K-1; first compound 0.02 µM) was 0.232. The relative viability (NCI-H1395; first compound 0.0002 µM) was 1.15, the relative viability (NCI-H1395; first compound 0.000632 µM) was 1.1 and the relative viability (NCI-H1395; first compound 0.002 µM) was 0.895. For the same molecule, the relative viability (NCI-H1395; first compound 0.006325 µM) was 0.394, the relative viability (NCI-H1395; first compound 0.02 µM) was 0.357 and the relative viability (NCI-H2170; first compound 0.0002 µM) was 0.569. The relative viability (NCI-H2170; first compound 0.000632 µM) was 0.49, the relative viability (NCI-H2170; first compound 0.002 µM) was 0.237 and the relative viability (NCI-H2170; first compound 0.006325 µM) was 0.213. For the same molecule, the relative viability (NCI-H2170; first compound 0.02 µM) was 0.15, the relative viability (NCI-H3122; first compound 0.0002 µM) was 0.996 and the relative viability (NCI-H3122; first compound 0.000632 µM) was 1. The relative viability (NCI-H3122; first compound 0.002 µM) was 0.895, the relative viability (NCI-H3122; first compound 0.006325 µM) was 0.376 and the relative viability (NCI-H3122; first compound 0.02 µM) was 0.168. The relative viability (LU99A; first compound 0.0002 µM) was 0.865, the relative viability (LU99A; first compound 0.000632 µM) was 0.533 and the relative viability (LU99A; first compound 0.002 µM) was 0.277. It also gave a relative viability (LU99A; first compound 0.006325 µM) of 0.201, a relative viability (LU99A; first compound 0.02 µM) of 0.148 and a relative viability (LC-2-ad; first compound 0.0002 µM) of 0.237. The relative viability (LC-2-ad; first compound 0.000632 µM) was 0.18, the relative viability (LC-2-ad; first compound 0.002 µM) was 0.114 and the relative viability (LC-2-ad; first compound 0.006325 µM) was 0.0942. It also gave a relative viability (LC-2-ad; first compound 0.02 µM) of 0.0914, a relative viability (NCI-H2405; first compound 0.0002 µM) of 0.907 and a relative viability (NCI-H2405; first compound 0.000632 µM) of 0.543. The relative viability (NCI-H2405; first compound 0.002 µM) was 0.313, the relative viability (NCI-H2405; first compound 0.006325 µM) was 0.203 and the relative viability (NCI-H2405; first compound 0.02 µM) was 0.119. For the same molecule, the relative viability (NCI-H460; first compound 0.0002 µM) was 0.997, the relative viability (NCI-H460; first compound 0.000632 µM) was 0.219 and the relative viability (NCI-H460; first compound 0.002 µM) was 0.0187. For the same molecule, the relative viability (NCI-H460; first compound 0.006325 µM) was 0.0123, the relative viability (NCI-H460; first compound 0.02 µM) was 0.0104 and the relative viability (CAL-12T; first compound 0.0002 µM) was 1.02. The relative viability (CAL-12T; first compound 0.000632 µM) was 0.694, the relative viability (CAL-12T; first compound 0.002 µM) was 0.178 and the relative viability (CAL-12T; first compound 0.02 µM) was 0.101. For the same molecule, the relative viability (UMC-11; first compound 0.0002 µM) was 0.314, the relative viability (UMC-11; first compound 0.000632 µM) was 0.271 and the relative viability (UMC-11; first compound 0.002 µM) was 0.155. For the same molecule, the relative viability (UMC-11; first compound 0.006325 µM) was 0.131 and the relative viability (UMC-11; first compound 0.02 µM) was 0.105.
